From patent US20230416256A1, “SMALL MOLECULE INHIBITORS OF NF-kB INDUCING KINASE” (Janssen Pharmaceutica NV, priority 2020, published 2023)
Read-outs that look alike come from different tables or passages of the source.

Experiments:
[1] = target: recombinant human NF-kappaB-inducing kinase (NIK/MAP3K14) (Homo sapiens, UniProt Q99558); experiment: Inhibition of auto-phosphorylation of recombinant human NIK/MAP3K14 activity (AlphaScreen); assay type: biochemical; conditions: GST-tagged NIK/MAP3K14 1 nM, 5 μM ATP, 2 h at 25° C.; average of values obtained
Procedure: Inhibition of Auto-Phosphorylation of Recombinant Human NF-kappaB-Inducing Kinase (NIK/MAP3K14) Activity (AlphaScreen®)
NIK/MAP3K14 auto-phosphorylation activity was measured using the AlphaScreen® (αscreen) format (Perkin Elmer). All compounds tested were dissolved in dimethyl sulfoxide (DMSO) and further dilutions were made in assay buffer. The final DMSO concentration was 0.7% (v/v) in assays. The assay buffer was 50 mM Tris pH 7.5 containing 1 mM EGTA (ethylene glycol tetraacetic acid), 1 mM DTT (dithiothreitol), 0.1 mM Na3VO4, 5 mM MgCl2, and 0.01% Tween® 20. The assays were carried out in 384 well Proxiplates (Perkin Elmer). The incubations consisted of the compound, 5 μM Adenosine-5′-triphosphate (ATP), and 1 nM NIK/MAP3K14. Incubations were initiated by the addition of GST-tagged NIK/MAP3K14 enzyme, carried out for 2 h at 25° C. and terminated by addition of stop buffer containing anti-phospho-IKK Ser176/180 antibody. Protein A Acceptor and Glutathione-Donor beads were added before reading using an EnVision Multilabel Plate Reader (Perkin Elmer). The signal obtained in the wells was normalized using high (full enzyme activity, 0.7% DMSO) and low controls (no enzyme activity, 0.7% DMSO, no ATP). IC50's were determined by fitting a sigmoidal curve to % inhibition of control versus Log10 compound concentration.

[2] = test system: p-IKKα levels in L363 (NIK translocated multiple myeloma) cells; experiment: Effect of compounds on p-IKKα levels in L363 cells (AlphaLISA SureFire Ultra); assay type: cell-based, human; conditions: Homo sapiens, 10 μM MG132, 6 h, average of values obtained, read-out: Assay 2 IC50
Procedure: Effect of Compounds on p-IKKα Levels in L363 (NIK Translocated Multiple Myeloma) Cells
All compounds tested were dissolved and serially diluted in DMSO, 1:3 dilution for 11 points in an Echo compatible plate. 100% DMSO was added to columns 12 and 24 of the plate to serve as high and low signal controls. This compound plate was used to spot 20 nL of compound or DMSO into a Greiner 384 well TC plate (781080). The final DMSO concentration was 0.3% (v/v) in cell assays. Human L363 cells (ATCC) were cultured in RPMI1640 medium supplemented with GlutaMax, non-essential amino acids, sodium pyruvate and 10% fetal bovine serum. Cells were routinely maintained at densities of […]-2×10^6 cells per mL at 37° C. in a humidified 5% CO2 atmosphere incubator. Cells were passaged twice a week splitting back to obtain the low density. The day before the assay, cells were washed twice in HBSS (Hank's Balanced Salt Solution), resuspended in Dulbecco's Modified Eagle Medium (DMEM)+0.5% IgG and protease free BSA (Jackson Immuno Research Laboratories), +/−250 ng/ml recombinant human B-cell activating factor (BAFF/BLyS/TNFSF13B) and incubated overnight at 37° C. in a humidified 5% CO2 atmosphere (bulk stimulation with or without BAFF). The next day, the cell concentration was adjusted to 1×10^7 cells/ml in DMEM+/−250 ng/ml BAFF+/10 μM MG132 and plated at […] into compound or DMSO spotted 384 well TC plates. Seeded cells were incubated at 37° C. in a humidified 5% CO2 atmosphere for 6 h. After 6 h, the plates were removed from the incubator and cell lysis was achieved by the addition of 2.5 μl 5×lysis buffer containing protease and phosphatase inhibitors, followed by shaking on a plate shaker at room temperature for 15 min. At the end of this incubation, lysed cells were sequentially treated and incubated with acceptor and donor bead mixes according to the manufacturer's protocol for a 1 plate/2-incubation suspension cell assay (AlphaLISA SureFire Ultra p-IKKa (Ser 176/180) Assay Kit (Perkin Elmer). Plates were read using an EnVision Multilabel Plate Reader (Perkin Elmer). Within an experiment, a concentration response curve for each compound was run in duplicate. The signal obtained in the test wells was normalized using high signal (BAFF stimulated cells, DMSO, MG132) and low signal (unstimulated cells, DMSO) controls. To determine the IC50, a sigmoidal curve was fitted to the plot of % inhibition versus Log10 compound concentration.

[3] = L-363, 6 h, 250 ng/ml BAFF stimulated
[4] = L-363, 250 ng/ml BAFF stimulated

Chain of recombinant human NF-kappaB-inducing kinase (NIK/MAP3K14) (Q99558 whole entry): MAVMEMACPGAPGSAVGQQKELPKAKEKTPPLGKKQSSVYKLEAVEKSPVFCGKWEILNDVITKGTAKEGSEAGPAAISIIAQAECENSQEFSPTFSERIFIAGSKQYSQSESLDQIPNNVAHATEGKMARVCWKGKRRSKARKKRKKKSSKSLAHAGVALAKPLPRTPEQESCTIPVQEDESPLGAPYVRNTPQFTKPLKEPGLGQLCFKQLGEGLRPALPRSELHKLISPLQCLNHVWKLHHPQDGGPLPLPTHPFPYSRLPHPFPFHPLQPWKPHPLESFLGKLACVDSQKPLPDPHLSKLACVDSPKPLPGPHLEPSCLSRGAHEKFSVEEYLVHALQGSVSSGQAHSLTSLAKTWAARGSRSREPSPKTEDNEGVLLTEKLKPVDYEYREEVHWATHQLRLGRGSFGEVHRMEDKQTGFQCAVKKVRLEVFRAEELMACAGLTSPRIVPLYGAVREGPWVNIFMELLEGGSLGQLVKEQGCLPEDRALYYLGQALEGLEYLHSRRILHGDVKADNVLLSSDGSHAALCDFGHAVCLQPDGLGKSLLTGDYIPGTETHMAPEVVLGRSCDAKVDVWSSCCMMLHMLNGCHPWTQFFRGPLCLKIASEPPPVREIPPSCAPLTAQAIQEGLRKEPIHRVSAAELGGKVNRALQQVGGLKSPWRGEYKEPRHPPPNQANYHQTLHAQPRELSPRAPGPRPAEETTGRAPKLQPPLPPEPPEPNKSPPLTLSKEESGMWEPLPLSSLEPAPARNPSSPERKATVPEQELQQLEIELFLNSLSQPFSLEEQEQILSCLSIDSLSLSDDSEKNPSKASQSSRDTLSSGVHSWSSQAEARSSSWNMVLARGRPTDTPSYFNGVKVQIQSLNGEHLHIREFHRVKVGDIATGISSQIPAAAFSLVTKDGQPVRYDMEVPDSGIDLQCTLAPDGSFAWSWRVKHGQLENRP

IC50 [2, 3] | Compound | IC50 [1] | IC50 [2, 4]
100 to 500 nM | O[C@@]1(c2cccc(-c3csc(-c4c[nH]c5ncc(C(F)(F)F)cc45)n3)c2)CCn2ccnc21 [Example 25, (R)-7-(3-(2-(5-(Trifluoromethyl)-1H-pyrrolo[2,3-b]pyridin-3-yl)thiazol-4-yl)phenyl)-6,7-dihydro-5H-pyrrolo[1,2-a]imidazol-7-ol] | ≤ 100 nM | 
≤ 100 nM | N#Cc1cnc2[nH]cc(-c3nc(-c4cccc([C@]5(O)CCn6ccnc65)c4)cs3)c2c1 [Example 26, (R)-3-(4-(3-(7-Hydroxy-6,7-dihydro-5H-pyrrolo[1,2-a]imidazol-7-yl)phenyl)thiazol-2-yl)-1H-pyrrolo[2,3-b]pyridine-5-carbonitrile] | ≤ 100 nM | 
≤ 100 nM | O[C@@]1(c2cccc(-c3csc(-c4c[nH]c5ncc(Cl)cc45)n3)c2)CCn2ccnc21 [Example 27, (R)-7-(3-(2-(5-Chloro-1H-pyrrolo[2,3-b]pyridin-3-yl)thiazol-4-yl)phenyl)-6,7-dihydro-5H-pyrrolo[1,2-a]imidazol-7-ol] | ≤ 100 nM | 
100 to 500 nM | CS(=O)(=O)c1cnc2[nH]cc(-c3nc(-c4cccc([C@]5(O)CCn6ccnc65)c4)cs3)c2c1 [Example 28, (R)-7-(3-(2-(5-(Methylsulfonyl)-1H-pyrrolo[2,3-b]pyridin-3-yl)thiazol-4-yl)phenyl)-6,7-dihydro-5H-pyrrolo[1,2-a]imidazol-7-ol] | ≤ 100 nM | 
≤ 100 nM | O[C@@]1(c2cccc(-c3csc(-c4c[nH]c5nccc(F)c45)n3)c2)CCn2ccnc21 [Example 29, (R)-7-(3-(2-(4-Fluoro-1H-pyrrolo[2,3-b]pyridin-3-yl)thiazol-4-yl)phenyl)-6,7-dihydro-5H-pyrrolo[1,2-a]imidazol-7-ol] | ≤ 100 nM | 
> 500 nM | O[C@@]1(c2cccc(-c3coc(-c4c[nH]c5ncccc45)c3)c2)CCn2ccnc21 [Example 30, (R)-7-(3-(5-(1H-Pyrrolo[2,3-b]pyridin-3-yl)furan-3-yl)phenyl)-6,7-dihydro-5H-pyrrolo[1,2-a]imidazol-7-ol] | ≤ 100 nM | 
≤ 100 nM | O[C@@]1(c2cccc(-c3csc(-c4c[nH]c5nccnc45)n3)c2)CCn2ccnc21 [Example 41, (R)-7-(3-(2-(5H-Pyrrolo[2,3-b]pyrazin-7-yl)thiazol-4-yl)phenyl)-6,7-dihydro-5H-pyrrolo[1,2-a]imidazol-7-ol] | ≤ 100 nM | 
> 500 nM | O[C@]1(c2cccc(-c3csc(-c4c[nH]c5nccnc45)n3)c2)CCn2ccnc21 [Example 42, (S)-7-(3-(2-(5H-Pyrrolo[2,3-b]pyrazin-7-yl)thiazol-4-yl)phenyl)-6,7-dihydro-5H-pyrrolo[1,2-a]imidazol-7-ol] | 100 to 500 nM | 
 | O=C1N(CC(F)(F)F)CC[C@]1(O)c1cccc(-c2csc(-c3c[nH]c4nccnc34)n2)c1 [Example 43, (S)-3-(3-(2-(5H-Pyrrolo[2,3-b]pyrazin-7-yl)thiazol-4-yl)phenyl)-3-hydroxy-1-(2,2,2-trifluoroethyl)pyrrolidin-2-one] | > 500 nM | > 500 nM
 | O=C1N(CC(F)(F)F)CC[C@@]1(O)c1cccc(-c2csc(-c3c[nH]c4nccnc34)n2)c1 [Example 44, (R)-3-(3-(2-(5H-Pyrrolo[2,3-b]pyrazin-7-yl)thiazol-4-yl)phenyl)-3-hydroxy-1-(2,2,2-trifluoroethyl)pyrrolidin-2-one] | > 500 nM | > 500 nM
 | CN1C[C@@](O)(c2cccc(-c3csc(-c4c[nH]c5nccnc45)n3)c2)C1=O [Example 45, (S)-3-(3-(2-(5H-Pyrrolo[2,3-b]pyrazin-7-yl)thiazol-4-yl)phenyl)-3-hydroxy-1-methylazetidin-2-one] | > 500 nM | > 500 nM
 | CN1C[C@](O)(c2cccc(-c3csc(-c4c[nH]c5nccnc45)n3)c2)C1=O [Example 46, (R)-3-(3-(2-(5H-Pyrrolo[2,3-b]pyrazin-7-yl)thiazol-4-yl)phenyl)-3-hydroxy-1-methylazetidin-2-one] | > 500 nM | > 500 nM
 | COc1cnc2[nH]cc(-c3nc(-c4cccc([C@]5(O)CCN(C)C5=O)c4)cs3)c2c1 [Example 49, (R)-3-Hydroxy-3-(3-(2-(5-methoxy-1H-pyrrolo[2,3-b]pyridin-3-yl)thiazol-4-yl)phenyl)-1-methylpyrrolidin-2-one] | ≤ 100 nM | 100 to 500 nM
 | CN1CC[C@@](O)(c2cccc(-c3nc(-c4c[nH]c5ncccc45)sc3CO)c2)C1=O [Example 50, (R)-3-Hydroxy-3-(3-(5-(hydroxymethyl)-2-(1H-pyrrolo[2,3-b]pyridin-3-yl)thiazol-4-yl)phenyl)-1-methylpyrrolidin-2-one] | ≤ 100 nM | > 500 nM
 | CN1CC[C@@](O)(c2cccc(-c3csc(-c4c[nH]c5ncc(C(=O)O)cc45)n3)c2)C1=O [Example 51, (R)-3-(4-(3-(3-Hydroxy-1-methyl-2-oxopyrrolidin-3-yl)phenyl)thiazol-2-yl)-1H-pyrrolo[2,3-b]pyridine-5-carboxylic acid] | ≤ 100 nM | > 500 nM
 | CN1CC[C@@](O)(c2cccc(-c3csc(-c4c[nH]c5ncncc45)n3)c2)C1=O [Example 53, (R)-3-(3-(2-(7H-Pyrrolo[2,3-d]pyrimidin-5-yl)thiazol-4-yl)phenyl)-3-hydroxy-1-methylpyrrolidin-2-one] | ≤ 100 nM | > 500 nM
 | CN1CCC[C@@](O)(c2cccc(-c3csc(-c4c[nH]c5nccnc45)n3)c2)C1=O [Example 54, (R)-3-(3-(2-(5H-Pyrrolo[2,3-b]pyrazin-7-yl)thiazol-4-yl)phenyl)-3-hydroxy-1-methylpiperidin-2-one] | ≤ 100 nM | 100 to 500 nM
 | CN1CCC[C@](O)(c2cccc(-c3csc(-c4c[nH]c5nccnc45)n3)c2)C1=O [Example 55, (S)-3-(3-(2-(5H-Pyrrolo[2,3-b]pyrazin-7-yl)thiazol-4-yl)phenyl)-3-hydroxy-1-methylpiperidin-2-one] | > 500 nM | > 500 nM
 | CN1CC[C@@](O)(c2cccc(-c3nc(-c4c(F)[nH]c5ncccc45)cs3)c2)C1=O [Example 56, (R)-3-(3-(4-(2-Fluoro-1H-pyrrolo[2,3-b]pyridin-3-yl)thiazol-2-yl)phenyl)-3-hydroxy-1-methylpyrrolidin-2-one] | 100 to 500 nM | > 500 nM
 | CN1CC[C@@](O)(c2cccc(-c3csc(-c4c(F)[nH]c5ncccc45)n3)c2)C1=O [Example 57, (R)-3-(3-(2-(2-Fluoro-1H-pyrrolo[2,3-b]pyridin-3-yl)thiazol-4-yl)phenyl)-3-hydroxy-1-methylpyrrolidin-2-one] | 100 to 500 nM | > 500 nM
> 500 nM | O[C@]1(c2cccc(-c3nc(-c4c[nH]c5ncccc45)cs3)c2)CCc2scnc21 [Example 58, (S)-4-(3-(4-(1H-Pyrrolo[2,3-b]pyridin-3-yl)thiazol-2-yl)phenyl)-5,6-dihydro-4H-cyclopenta[d]thiazol-4-ol] | 100 to 500 nM | 
≤ 100 nM | O[C@@]1(c2cccc(-c3nc(-c4c[nH]c5ncccc45)cs3)c2)CCc2scnc21 [Example 59, (R)-4-(3-(4-(1H-Pyrrolo[2,3-b]pyridin-3-yl)thiazol-2-yl)phenyl)-5,6-dihydro-4H-cyclopenta[d]thiazol-4-ol] | ≤ 100 nM | 
